Source: ChEMBL document CHEMBL5108047 (J Med Chem, 2022)

Experiments:
[1] = Volume of distribution at steady state in CD-1 mouse at 2.5 mg/kg, po or 2.5 mg/kg, iv measured upto 24 hrs by reverse phase LCMS analysis; type: ADME, organism-based; conditions: in vivo
[2] = AUC in CD-1 nude mouse at 80 mg/kg, po administered twice daily and measured on day 7 by HPLC-MS analysis; type: ADME, organism-based; design: time 7 day, dose 80 mg/kg, route po; conditions: in vivo
[3] = Oral bioavailability in CD-1 mouse at […] measured upto 24 hrs by reverse phase LCMS analysis; type: ADME, organism-based; conditions: in vivo
[4] = Inhibition of MMEJ-mediated DNA repair in CRSIPRR/Cas9-induced wildtype human HCT-116 cells incubated for 24 hrs by PCR analysis; type: functional, cell-based
[5] = Toxicity in CD-1 mouse xenografted with BRCA2 knock in human HCT-116 cells assessed as drug tolerance at 80 mg/kg, po administered twice a day for 21 days; type: organism-based; conditions: in vivo, 504 h, time 21 day
[6] = Toxicity in CD-1 mouse xenografted with BRCA2 knock in human HCT-116 cells assessed as body weight loss at 80 mg/kg, po administered twice a day for 21 days; type: organism-based; conditions: in vivo, 504 h, time 21 day
[7] = fCaverage in CD-1 mouse; type: ADME
[8] = biological target: T1, DNA polymerase theta (Homo sapiens, UniProt O75417); assay: Inhibition of N-terminal His8-tagged/C-terminal FLAG-tagged full length human DNA polymerase theta ( 1 to 2590 residues) polymerase activity expressed in HEK2936E cells; type: cell-based
T1 sequence (O75417 whole entry, the tested form may be a part): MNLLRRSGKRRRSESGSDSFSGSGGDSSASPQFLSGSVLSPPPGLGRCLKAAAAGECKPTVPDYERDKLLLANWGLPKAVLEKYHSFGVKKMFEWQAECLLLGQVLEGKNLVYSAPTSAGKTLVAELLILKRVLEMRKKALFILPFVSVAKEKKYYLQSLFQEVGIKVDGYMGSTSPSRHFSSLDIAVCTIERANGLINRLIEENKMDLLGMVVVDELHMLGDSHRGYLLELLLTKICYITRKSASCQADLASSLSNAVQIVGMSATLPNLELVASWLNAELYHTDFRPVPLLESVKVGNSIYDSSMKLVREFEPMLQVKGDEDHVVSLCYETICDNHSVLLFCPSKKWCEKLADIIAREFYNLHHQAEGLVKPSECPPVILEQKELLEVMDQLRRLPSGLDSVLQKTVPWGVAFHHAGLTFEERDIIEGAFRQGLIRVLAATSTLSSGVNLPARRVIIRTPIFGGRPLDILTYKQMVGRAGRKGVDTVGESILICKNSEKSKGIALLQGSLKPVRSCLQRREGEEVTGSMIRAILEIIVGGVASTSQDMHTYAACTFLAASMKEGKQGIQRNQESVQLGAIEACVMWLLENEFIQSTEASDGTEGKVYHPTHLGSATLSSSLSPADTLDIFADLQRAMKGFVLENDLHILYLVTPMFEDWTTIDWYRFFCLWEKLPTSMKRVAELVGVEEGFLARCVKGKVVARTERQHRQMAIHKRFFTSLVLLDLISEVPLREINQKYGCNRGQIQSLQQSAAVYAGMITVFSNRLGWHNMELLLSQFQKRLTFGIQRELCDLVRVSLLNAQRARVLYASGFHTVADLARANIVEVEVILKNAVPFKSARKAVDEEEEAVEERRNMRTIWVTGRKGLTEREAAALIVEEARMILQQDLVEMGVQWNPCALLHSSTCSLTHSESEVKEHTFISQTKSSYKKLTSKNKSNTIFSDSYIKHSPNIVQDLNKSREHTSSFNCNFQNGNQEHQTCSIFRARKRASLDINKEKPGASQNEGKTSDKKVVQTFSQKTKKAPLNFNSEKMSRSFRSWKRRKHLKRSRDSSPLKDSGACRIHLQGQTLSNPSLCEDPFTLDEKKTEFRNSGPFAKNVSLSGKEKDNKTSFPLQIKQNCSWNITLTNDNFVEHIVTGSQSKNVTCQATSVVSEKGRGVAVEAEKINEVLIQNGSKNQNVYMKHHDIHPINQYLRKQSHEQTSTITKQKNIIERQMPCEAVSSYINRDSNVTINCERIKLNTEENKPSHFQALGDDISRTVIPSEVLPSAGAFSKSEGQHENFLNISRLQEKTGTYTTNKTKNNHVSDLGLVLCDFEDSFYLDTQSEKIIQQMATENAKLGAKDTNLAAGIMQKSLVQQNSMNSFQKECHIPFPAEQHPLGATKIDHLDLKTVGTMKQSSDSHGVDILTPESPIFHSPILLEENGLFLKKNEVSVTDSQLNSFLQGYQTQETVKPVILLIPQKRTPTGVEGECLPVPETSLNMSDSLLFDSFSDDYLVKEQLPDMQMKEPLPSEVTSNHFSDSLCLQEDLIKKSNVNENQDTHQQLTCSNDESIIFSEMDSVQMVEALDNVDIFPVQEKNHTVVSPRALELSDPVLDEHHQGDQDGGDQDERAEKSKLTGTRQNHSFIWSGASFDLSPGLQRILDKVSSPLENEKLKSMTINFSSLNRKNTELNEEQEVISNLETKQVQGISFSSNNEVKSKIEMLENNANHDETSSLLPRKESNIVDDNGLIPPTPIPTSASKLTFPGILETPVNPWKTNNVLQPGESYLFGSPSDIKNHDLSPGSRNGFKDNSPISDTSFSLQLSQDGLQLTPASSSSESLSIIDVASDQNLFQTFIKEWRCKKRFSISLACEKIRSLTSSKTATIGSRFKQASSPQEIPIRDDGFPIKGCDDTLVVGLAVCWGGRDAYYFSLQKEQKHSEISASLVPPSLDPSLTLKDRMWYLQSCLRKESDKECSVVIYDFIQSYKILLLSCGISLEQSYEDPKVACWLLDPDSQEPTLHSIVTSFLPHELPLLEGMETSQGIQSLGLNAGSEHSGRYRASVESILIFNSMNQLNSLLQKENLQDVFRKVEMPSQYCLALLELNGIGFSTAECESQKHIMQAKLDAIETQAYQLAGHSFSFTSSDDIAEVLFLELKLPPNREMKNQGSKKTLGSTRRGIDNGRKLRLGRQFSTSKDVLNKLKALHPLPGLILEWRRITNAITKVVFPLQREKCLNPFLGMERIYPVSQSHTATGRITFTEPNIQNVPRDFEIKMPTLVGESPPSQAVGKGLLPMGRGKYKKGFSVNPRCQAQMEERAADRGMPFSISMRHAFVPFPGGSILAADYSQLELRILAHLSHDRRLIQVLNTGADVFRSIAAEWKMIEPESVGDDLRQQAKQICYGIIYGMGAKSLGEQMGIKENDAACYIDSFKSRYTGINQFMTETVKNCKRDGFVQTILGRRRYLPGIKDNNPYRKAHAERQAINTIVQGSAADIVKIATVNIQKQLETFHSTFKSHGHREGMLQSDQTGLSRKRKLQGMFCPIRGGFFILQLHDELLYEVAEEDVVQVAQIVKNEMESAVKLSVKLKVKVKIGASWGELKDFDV

[9] = Toxicity in CD-1 mouse xenografted with BRCA2 knock out human HCT-116 cells assessed as body weight loss at 80 mg/kg, po administered twice a day for 21 days; type: organism-based; conditions: in vivo, 504 h, time 21 day
[10] = AUC in CD-1 mouse at 20 mg/kg, po measured upto 24 hrs by reverse phase LCMS analysis; type: ADME, organism-based; design: time < 24 hrs, dose 20 mg/kg, route po; conditions: in vivo
[11] = Inhibition of Alt-Ej-mediated DNA repair in LIG4 knock out HEK293T cells; type: functional, cell-based, Homo sapiens; conditions: hek-293t
[12] = test system: HCT-116; assay: Antiproliferative activity against BRCA2 knock in human HCT-116 cells assessed as inhibition of cell growth incubated for 7 days with media replacement for every 3 or 4 days; type: functional, cell-based
[13] = biological target: T1, DNA polymerase theta; assay: Inhibition of human DNA polymerase theta pol domain (1819 to 2590 residues) expressed in Escherichia coli BL21 (DE3) cells preincubated for 15 mins followed by DNA and dNTP addition and measured after 120 mins by Picogreen dye fluorescence intensity analysis

SMILES: Nc1ccc(C#CCN(C(=O)Cc2ncc(C(F)(F)F)cc2C(F)(F)F)c2ccc(F)cc2)nn1
- Vdss [1]: 1.1 L/kg
- AUC at 168 h [2]: 14.7 µM·h
- bioavailability [3]: 66%
- IC50 [4]: 0.45 µM
- Activity [5]: Non-Toxic
- Activity [6]: Non-Toxic
- f(Cave) [7]: 107 nM
- IC50 [8]: 0.00055 µM
- Activity [9]: Non-Toxic
- AUC [10]: 49.7 µM·h
- IC50 [11]: 2.15 µM
- IC50 [12]: > 15 µM
- IC50 [13]: 0.0058 µM
